# Test results as given in patent publication US8703811B2, “Small molecule inhibitors of Plasmodium falciparum dihydroorotate dehydrogenase” (Genzyme Corporation, priority 2008, dated 2014).
# How the values were obtained:
# [1] = Normal Human Dermal Fibroblast Toxicity Screen; format: cell-based; details: human, normal human dermal fibroblasts; four days exposure, Alamar Blue; read-out: Dermal Fibroblast LC50
# Procedure: The Normal Human Dermal Fibroblast Toxicity Screen Protocol is designed to determine whether compound mixtures, breakouts or single compounds are toxic to normal human dermal fibroblasts. The screen involves plating the dermal fibroblasts and then exposing them to the compounds for four days, then cell viability is measured using Alamar Blue reagent.
# Harvested Dermal Fibroblast cells were diluted in Growth Media to 0.25 to 0.3×10^5 cells/mL. […] NOTE: One plate, the T=0 plate required that 20-30 wells be seeded and all the other plates had 96 wells seeded. Plates were incubated in 37° C./5% CO2 incubator for 24 hours.
# Alamar Blue solution (25 μL/well) was added to the T=0 plate and the plate was agitated. The plate in 37° C./5% CO2 incubator was incubated for 3 hours, agitated the and the fluorescence was measured. 10% Tween 20 stock (10 μL) was added into rows A-D in column 1 (positive control). DMSO (0.5 μL) was added into column 2 (negative control). Compounds were placed into designated wells for desired testing as follows:
# Plates were mixed on the shaker, then incubated in 37° C./5% CO2 incubator for 96 hours.
# Alamar Blue solution (25 μL/well) was added to the plates containing the compounds, and the plates were agitated. The plates were incubated in 37° C./5% CO2 incubator for 3 hours, agitated and then the fluorescence was measured.
# hsDHODH = hsDHODH (Homo sapiens (Human), UniProt Q02127); experiment: DCIP assay, hsDHODH; format: biochemical; details: DCIP assay; 200 μM L-DHO, 18 μM CoQD, 100 μM DCIP, 20 nM enzyme; read-out: hsDHODH IC50
# Sequence of hsDHODH (Q02127 29-395 limits assumed): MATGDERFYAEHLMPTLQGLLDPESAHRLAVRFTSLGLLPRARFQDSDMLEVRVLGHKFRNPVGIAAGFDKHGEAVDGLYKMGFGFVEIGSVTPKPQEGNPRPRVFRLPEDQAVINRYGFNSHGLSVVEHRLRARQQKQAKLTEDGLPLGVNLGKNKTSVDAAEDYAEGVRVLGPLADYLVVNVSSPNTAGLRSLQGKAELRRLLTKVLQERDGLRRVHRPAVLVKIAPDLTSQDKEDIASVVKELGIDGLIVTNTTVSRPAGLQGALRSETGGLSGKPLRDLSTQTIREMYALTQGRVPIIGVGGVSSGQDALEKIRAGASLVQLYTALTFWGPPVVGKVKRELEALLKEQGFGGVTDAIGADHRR
# Description: (§1) Type 2 DHODH activity was monitored with either the direct assay measuring the formation of orotate or via a chromogen reduction assay using DCIP. Although the extinction coefficient and absorption wavelength are preferable for the chromogen reduction assay, the inorganic electron acceptor DCIP can be utilized by DHODH as the final electron acceptor in lieu of CoQn when the endogenous substrate is at a low concentration. As such, the direct assay was used to measure the binding affinity of pfDHODH to CoQD and L-DHO. The enzymatic reaction was performed by varying the L-DHO concentration (1-400 μM) or CoQD concentration (1-200 μM) while keeping the other substrate constant and in excess. The formation of orotate was measured continuously at 296 nm (ε296=4.3 mM^−1 cm^−1). Inhibition of DHODH by small molecules was evaluated using the chromogen based assay with a final substrate concentration of 200 μM L-DHO, 18 μM CoQD, and 100 μM DCIP, unless otherwise noted. The reduction of DCIP was monitored at 600 nm (ε600=18.8 mM^−1 cm^−1).
# (§2) Substrate specificity and enzyme inhibition data was analyzed with GraphPad Prism Version 4 for Windows (GraphPad Software). Kinetic constants were calculated by non-linear regression fitting of the data to the Michaelis-Menten equation [36]. IC50 values were determined by non-linear regression fitting of the data to Equation 1: […]
# P. falciparum D10 = experiment: Inhibition of in vitro P. falciparum culture, [3H]-hypoxanthine uptake, D10; format: cell-based; details: Plasmodium falciparum, D10, Erythrocyte; [3H]-hypoxanthine uptake by parasite infected erythrocytes; read-out: D10 IC50
# Procedure: (§3) P. falciparum strains D10, 3D7, HB3, and Dd2 were obtained from the Malaria Research and Reference Reagent Resource Center (Manassas, Va.). The parasite strains were maintained in vitro by method of Trager and Jensen. The inhibition of P. falciparum growth in the presence of drug was assessed by the relative reduction of [^3H]-hypoxanthine uptake as previously described. Inhibition data were fitted to Equation 1 using non-linear regression analysis except that the relative velocity of parasite growth was substituted for the rate of product formation.
# scDHODH = scDHODH (Saccharomyces cerevisiae (strain ATCC 204508 / S288c) (Baker's yeast), UniProt P28272); experiment: DCIP assay with fumarate, scDHODH; format: biochemical; details: 115 μM fumarate in lieu of CoQD
# Sequence of scDHODH (P28272 whole entry): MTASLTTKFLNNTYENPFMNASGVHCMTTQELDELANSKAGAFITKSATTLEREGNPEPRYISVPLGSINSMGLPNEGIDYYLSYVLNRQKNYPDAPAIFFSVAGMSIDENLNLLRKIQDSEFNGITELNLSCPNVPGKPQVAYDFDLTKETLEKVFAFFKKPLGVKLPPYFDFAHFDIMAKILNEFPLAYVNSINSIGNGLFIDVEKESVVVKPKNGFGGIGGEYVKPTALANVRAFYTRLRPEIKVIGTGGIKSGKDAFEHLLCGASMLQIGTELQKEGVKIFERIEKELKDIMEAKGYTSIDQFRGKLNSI
# P. falciparum Dd2 = experiment: Inhibition of in vitro P. falciparum culture, [3H]-hypoxanthine uptake, Dd2; format: cell-based; details: Plasmodium falciparum, DD2, Erythrocyte, [3H]-hypoxanthine uptake by parasite infected erythrocytes; read-out: Dd2 IC50
# Procedure, shortened: (§4)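 Parasite growth inhibition measured as relative reduction of [3H]-hypoxanthine uptake in in vitro cultures. Values from non-linear regression fit, using relative growth velocity in place of product-formation rate.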
# [2] = tested on: P. falciparum D10-scDHODH; experiment: Inhibition of transgenic D10-scDHODH parasites, [3H]-hypoxanthine uptake; format: cell-based
# Procedure: as §3
# Transgenic parasites expressing scDHODH were generated as described by Painter et al. except that full length scDHODH was cloned directly into the pGem3Z vector without a GFP tag. The resultant plasmid was transfected into ring stages of P. falciparum D10 by electroporation and maintained in culture using standard methods under the selection of WR99210.
# pvDHODH = pvDHODH (Plasmodium vivax, UniProt A5K1N1); experiment: DCIP assay, pvDHODH; format: biochemical, P. vivax; details: 200 μM L-DHO, 18 μM CoQD, 100 μM DCIP, 20 nM enzyme
# Sequence of pvDHODH (A5K1N1 1-572): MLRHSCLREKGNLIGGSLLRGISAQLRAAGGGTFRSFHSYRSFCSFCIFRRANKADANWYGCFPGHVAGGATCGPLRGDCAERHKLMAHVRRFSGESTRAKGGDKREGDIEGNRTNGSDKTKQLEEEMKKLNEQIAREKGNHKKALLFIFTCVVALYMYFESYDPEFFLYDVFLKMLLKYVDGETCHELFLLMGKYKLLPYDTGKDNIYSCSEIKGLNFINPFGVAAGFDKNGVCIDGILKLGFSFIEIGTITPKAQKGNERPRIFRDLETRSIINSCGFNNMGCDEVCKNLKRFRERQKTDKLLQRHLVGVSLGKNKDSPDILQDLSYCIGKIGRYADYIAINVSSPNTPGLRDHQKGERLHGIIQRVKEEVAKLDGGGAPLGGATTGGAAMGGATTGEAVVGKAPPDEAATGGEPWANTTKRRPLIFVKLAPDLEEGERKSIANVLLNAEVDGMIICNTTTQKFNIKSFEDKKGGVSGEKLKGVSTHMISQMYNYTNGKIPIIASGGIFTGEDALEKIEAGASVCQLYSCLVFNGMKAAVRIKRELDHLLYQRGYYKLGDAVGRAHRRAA
# Description: as §1, §2
# P. falciparum 3D7 = experiment: Inhibition of in vitro P. falciparum culture, [3H]-hypoxanthine uptake, 3D7; format: cell-based; details: Plasmodium falciparum, 3D7, Erythrocyte; [3H]-hypoxanthine uptake by parasite infected erythrocytes; read-out: 3D7 IC50
# Procedure, shortened: as §4
# [3] = Renal Proximal Tubule Epithelial Cell Toxicity Screen; format: cell-based
# Procedure: The Renal Proximal Tubule Epithelial Cell Toxicity Screen is designed to determine whether compound mixtures, breakouts or single compounds are toxic to normal renal epithelial cells. […] Basically, the screen consists of plating renal epithelial cells, exposing them to the desired compound(s) for 4 days and measuring cell viability using the Alamar Blue reagent.
# Harvested Kidney Epithelial cells were diluted in REGM to 1.5×10^4 cells/mL. […] NOTE: One plate, the T=0 plate required that 20-30 wells be seeded, and all the other plates had 96 wells seeded. Plates were incubated in 37° C./5% CO2 incubator for 24 hours.
# Alamar Blue solution (25 μL/well) was added to the T=0 plate and mixed. The plate was incubated in 37° C./5% CO2 incubator for 4 hours, mixed and then the fluorescence was measured. 10% Tween 20 stock (10 μL) was added into rows A-D in column 1 (positive control). DMSO (0.5 μL) was added into column 2 (negative control). Compounds were placed into designated wells for desired testing as follows:
# Plates were mixed on the shaker, and then incubated in 37° C./5% CO2 incubator for 96 hours. Day 6:
# Alamar Blue solution (25 μL/well) was added to the plates containing the compounds and mixed. Plates were incubated in 37° C./5% CO2 incubator for 4 hours, mixed and the fluorescence was measured.
# P. falciparum HB3 = experiment: Inhibition of in vitro P. falciparum culture, [3H]-hypoxanthine uptake, HB3; format: cell-based; details: Plasmodium falciparum, HB3, Erythrocyte; [3H]-hypoxanthine uptake by parasite infected erythrocytes; read-out: HB3 IC50
# Procedure: as §3
# pfDHODH [4] = biological target: T1, pfDHODH (Plasmodium falciparum (isolate 3D7), UniProt Q08210); experiment: pfDHODH activity with FeCy as electron acceptor; details: read-out: % Inhibition of Product Formation Rate with 50 μM Inhibitor, FeCy
# T1 sequence (Q08210 159-565 limits assumed): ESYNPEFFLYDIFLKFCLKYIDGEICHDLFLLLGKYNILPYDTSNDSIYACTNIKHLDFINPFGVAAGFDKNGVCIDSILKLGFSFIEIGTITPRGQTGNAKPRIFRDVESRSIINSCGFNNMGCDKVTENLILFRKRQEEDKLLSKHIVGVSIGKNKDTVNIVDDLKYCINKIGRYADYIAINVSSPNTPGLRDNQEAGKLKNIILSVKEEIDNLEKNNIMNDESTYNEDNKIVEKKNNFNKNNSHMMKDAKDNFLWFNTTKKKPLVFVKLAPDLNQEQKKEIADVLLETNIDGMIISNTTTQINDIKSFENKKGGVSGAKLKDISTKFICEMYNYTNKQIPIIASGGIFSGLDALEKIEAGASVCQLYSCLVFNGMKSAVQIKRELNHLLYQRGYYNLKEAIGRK
# Procedure: Inhibitors of DHODH, as classified by the chromogen reduction assay, were also evaluated for activity using FeCy as an electron acceptor. A final concentration of 5-50 nM DHODH, 200 μM L-DHO and 100 μM FeCy in Buffer C was used in this assay. Both the reduction of FeCy and the formation of orotate was monitored at 420 nm (ε420=1 mM^−1 cm^−1) and 290 nm (ε280=2 mM^−1 cm^−1), respectively, noting that two molecules of FeCy are reduced for one molecule of L-DHO. As with the previous assays, the reaction was performed at 25° C. and initiated with the addition of enzyme.
# pfDHODH [5] = biological target: T1, pfDHODH; experiment: DHODH chromogen reduction (DCIP) assay, pfDHODH; format: biochemical, P. falciparum; details: 200 μM L-DHO
# pbDHODH = pbDHODH (Plasmodium berghei, UniProt A0A509AEH5); experiment: DCIP assay, pbDHODH; format: biochemical, P. berghei; details: 200 μM L-DHO, 18 μM CoQD, 100 μM DCIP, 20 nM enzyme
# Sequence of pbDHODH (A0A509AEH5 1-517): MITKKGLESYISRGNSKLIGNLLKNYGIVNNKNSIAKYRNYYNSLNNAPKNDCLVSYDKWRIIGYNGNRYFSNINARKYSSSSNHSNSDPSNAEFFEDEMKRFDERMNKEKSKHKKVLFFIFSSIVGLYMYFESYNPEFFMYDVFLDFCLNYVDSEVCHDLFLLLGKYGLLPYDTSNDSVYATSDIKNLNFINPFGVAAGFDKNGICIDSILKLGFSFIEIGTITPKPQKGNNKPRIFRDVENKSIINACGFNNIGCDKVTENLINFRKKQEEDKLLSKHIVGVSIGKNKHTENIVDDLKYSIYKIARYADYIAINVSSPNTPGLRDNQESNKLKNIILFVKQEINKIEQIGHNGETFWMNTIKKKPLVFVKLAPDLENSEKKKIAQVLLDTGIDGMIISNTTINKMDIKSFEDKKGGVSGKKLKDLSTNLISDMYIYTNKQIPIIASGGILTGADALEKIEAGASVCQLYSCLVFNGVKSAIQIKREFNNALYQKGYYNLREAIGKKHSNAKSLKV
# Description: as §1, §2
compound,measurement,setting,value
"O=C(NC1CC1)c1ccc(N2CCSc3ccccc32)s1 [Compound 5, 5(2H-benzo[b][1,4]thiazin-4(3H)-yl)-N-cyclopropylthiophene-2-carboxamide]",CC50 at 96 h,[1],> 62000 nM
same,IC50,hsDHODH,7900 ± 400 nM
same,IC50,P. falciparum D10,950 nM
same,IC50,scDHODH,> 10000 nM
same,IC50,P. falciparum Dd2,620 nM
same,IC50,"[2]; Plasmodium falciparum, D10, read-out: D10-scDHODH IC50",> 10000 nM
same,efficacy against D10-scDHODH strain compared to D10 parent strain,"[2]; dose-effect curves, FIG. 5",significantly reduced
same,IC50,pvDHODH,280 ± 10 nM
same,IC50,P. falciparum 3D7,890 nM
same,CC50 at 96 h,[3],> 62000 nM
same,IC50,P. falciparum HB3,910 nM
same,inhibition at 50 µM,pfDHODH [4],23%
same,inhibition at 50 µM,"pfDHODH [5]; 50 μM inhibitor, 100 μM CoQD, 60 μM DCIP, read-out: % Inhibition of Product Formation Rate with 50 μM Inhibitor, CoQD",97%
same,IC50,"pfDHODH [5]; DCIP assay, 18 μM CoQD, 100 μM DCIP, 20 nM enzyme, read-out: pfDHODH IC50",250 ± 30 nM
same,IC50,pbDHODH,380 ± 60 nM
